# Measured values published in patent publication US12466784B2, “Analogs of pterostilbene amino acid bearing carbonates for treating a non-alcoholic fatty liver disease and nonalcoholic steatohepatitis” (APICAL MOLECULAR BIOTECH CO., LTD., priority 2020, dated 2025).
# “And” between values parts separate entries of the source, which are not always exact repeats. Equal values may be shown once.
# Key:
# [1] = test system: hepatic steatosis induced by MCD diet; test: Histological examination (H&E stain) of liver of MCD diet mice; type: in vivo, Male C57BL/6 mice; conditions: for effect on MCD diet-induced steatohepatitis (H&E staining), in words / Steatosis / Ballooning / Fibrosis / Inflammation / Scores: MCD diet mice; for effect on MCD diet-induced steatohepatitis (H&E staining), in words / Avg / Ballooning / Fibrosis / Inflammation / Sum / Scores: 100 mg/kg oral; for Avg: average of Scores of the group; for Avg / Ballooning / Fibrosis / Inflammation / Sum / Scores: PG/TPSG (1:1); for Steatosis / Ballooning / Fibrosis / Inflammation: score per animal; for Steatosis: 100 mg/kg oral once daily, 5 times a week, in PG/TPSG (1:1); for Steatosis / Inflammation / Scores: 100 mg/kg; for Sum: sum of Scores of the 4 animals of the group; for Scores: total score per animal
# Method: (§1) Animals and experimental protocol: Male C57BL/6 mice, 4 weeks of age, were purchased from Laboratory Animal Center (Taiwan, China) were maintained under the procedures and guidelines provided by the Institutional Animal Care and Use Committee of the Health Research Institutes (Taiwan, China). They were maintained with free access to pellet food and water in stainless-steel cages at a temperature of 21±2° C. with a 12 h light/dark cycle.
# (§2) Mice were randomly divided into five groups and treated as follows: (1) MCD diet+PG/TPSG (2) MCD diet+100 mg/kg all compounds. After 28 days, animals were sacrificed for the collection of blood for determination of plasma ALT and AST concentrations, and liver samples for H&E stain.
# (§3) After 28 days, animals were sacrificed for the collection of blood for determination of plasma ALT and AST concentrations, and liver samples for H&E stain.
# MCD diet NASH mice = test: Serum AST and ALT of compounds treated-NASH mice (MCD diet); type: in vivo, Male C57BL/6 mice; conditions: MCD diet mice; for Serum ALT (U/L) / Serum AST (U/L): 100 mg/kg oral, PG/TPSG (1:1)
# Method: as §1, §2, §3
# [2] = In vitro stability in pH 1.2 solution (USP Gastric fluid without enzymes); conditions: 37° C.
# Method: Sample collection: At 0, 0.17, 0.5, 1, 2, 4 and 6 h, 100 mL of aliquots were taken from the incubation mixture and placed into centrifuge tubes containing 100 μL of ice-cold acetonitrile and 1 μm internal standard where the reaction was terminated.
Structure (SMILES),"effect on MCD diet-induced steatohepatitis (H&E staining), in words [1]",Avg [1],Steatosis ([1]; hydrochloride),Ballooning [1],Fibrosis [1],Inflammation ([1]; hydrochloride),Sum [1],Scores ([1]; hydrochloride),Serum ALT (U/L) (MCD diet NASH mice),Serum AST (U/L) (MCD diet NASH mice),compound remaining in pH = 1.2 solution (%) ([2]; Time 0 h),compound remaining in pH = 1.2 solution (%) ([2]; Time 0.167 h),compound remaining in pH = 1.2 solution (%) ([2]; Time 0.5 h),compound remaining in pH = 1.2 solution (%) ([2]; Time 1 h),compound remaining in pH = 1.2 solution (%) ([2]; Time 2 h),compound remaining in pH = 1.2 solution (%) ([2]; Time 4 h),Steatosis ([1]; dihydrochloride),Inflammation ([1]; dihydrochloride),Scores ([1]; dihydrochloride),"effect on serum concentrations of AST and ALT, in words (MCD diet NASH mice; 100 mg/kg oral (Table 2))"
"Cl.[2H]C([2H])([2H])Oc1cc(/C=C/c2ccc(OC(=O)OCCNC(=O)CN)cc2)cc(OC([2H])([2H])[2H])c1 [Compound 6a, (E)-2-(2-aminoacetamido)ethyl (4-(3,5-bis(methoxy-d3)styryl-d6)phenyl) carbonate hydrochloride]",prevented MCD diet-induced steatohepatitis,7.00,3 (2×) and 2 (2×),2,0,3 (2×) and 2 (2×),28,8 and 7 (2×) and 6,402.63,555.25,100.0,106.4,101.2,119.4,101.5,104.6,,,,
"CCOc1cc(/C=C/c2ccc(OC(=O)OCCNC(=O)CN)cc2)cc(OCC)c1.Cl [Compound 6b, (E)-2-(2-aminoacetamido)ethyl (4-(3,5-diethoxystyryl)phenyl) carbonate hydrochloride]",prevented MCD diet-induced steatohepatitis,7.00,3 (2×) and 2 (2×),2,0,3 (2×) and 2 (2×),28,8 (2×) and 6 (2×),454.38,408.75,100.0,130.5,103.9,111.7,97.9,99.2,,,,
"COc1cc(/C=C/c2ccc(OC(=O)OCCNC(=O)C(N)Cc3ncc[nH]3)cc2)cc(OC)c1.Cl.Cl (stereo not shown) [Compound 5m, (E)-2-(2-amino-3-(1H-imidazol-2-yl)propanamido)ethyl (4-(3,5-dimethoxy styryl)phenyl) carbonate dihydrochloride]",prevented MCD diet-induced steatohepatitis,7.25,,2,0,,29,,190.88,381.75,100.0,88.6,109.8,113.5,102.6,85.6,2 (2×) and 3 (2×),3 (3×) and 2,7 and 8 (2×) and 6,significantly inhibited the serum concentrations of AST and ALT
